What was measured:
[1] = test system: human umbilical vein endothelial cells (HUVEC); assay: Measurement of vWF release after reperfusion (ELISA of cell supernatant); assay type: cell-based
Method: All the examples were carried out with human umbilical vein endothelial cells (HUVEC). These comprise primary cell cultures isolated from the umbilical vein.
For the following examples, the cells were cultivated either on gelatinized glass plates (measurement of the intracellular proton concentration) or on cell culture plates (12-well culture plates, Falcon, N.J., USA; measurement of vWF release) after the first passage.
The measurements were carried out in a Heraeus Heracell incubator. This made it possible to […] the umbilical vein endothelial cells under controlled physiological conditions (temperature 37° C., relative humidity 100%, pCO2 constant at 5%) and to ensure rapid change of different cell culture media. […]
The samples taken from the supernatant were used to determine the vWF concentration. […] The vWF content of standard human plasma (Behring, Marburg) is calculated using an international standard (2nd International Standard 87/718; National Institute for Biological Standards and Control, London).
Table 4: vWF secretion was measured during a 10-minute reperfusion time with stimulation. […]

[2] = test system: human umbilical vein endothelial cells (HUVEC); assay: Measurement of the intracellular pH (BCECF fluorescence) during reperfusion simulation after acidosis; assay type: cell-based; conditions: reperfusion buffer pH 7.4 with 10 μM histamine after 60 minutes of acidosis (pHex 6.4); inhibitors each 10 μM; found from first 30 seconds after reperfusion; Mean ± SEM; control buffer 18 ± 1.5
Method: All the examples were carried out with human umbilical vein endothelial cells (HUVEC). These comprise primary cell cultures isolated from the umbilical vein. For the following examples, the cells were cultivated either on gelatinized glass plates (measurement of the intracellular proton concentration) or on cell culture plates (12-well culture plates, Falcon, N.J., USA; measurement of vWF release) after the first passage. To measure the intracellular proton concentration (pHi), the HUVECs were loaded with the pH-sensitive fluorescent dye BCECF-AM (2′,7′-bis(carboxyethyl)-5(6)-carboxyfluorescein). A Deltascan spectrofluorometer (PTI, Hamburg) was employed for the subsequent fluorescence measurement. This measuring system consists essentially of a UV light source, a monochromator, a photon detector and the Felix and Oscar software packages (PTI, Hamburg) for controlling the system via a computer. After alternate excitation with the wavelengths 439.5 nm (pH-independent) and 490 nm (pH-sensitive), the ratio of the measured emissions of the BCECF (ratio) was reported and the pH was found after a calibration. The measuring cell is designed so that the parameters of temperature and carbon dioxide partial pressure in the system are controlled during continuous perfusion. […]

Compound	vWF secretion during reperfusion of preacidotic cells, relative to control cells (vWFco = 100%) ([1]; 10 μM compound, 10-minute reperfusion time with stimulation (10 μM histamine), preacidotic cells without inhibitor 193 ± 8.0%) [%]	reduction of the increased vWF secretion during reperfusion ([1]; blockade of the NCBE transporter, 10 μM, reperfusion of preacidotic cells) [%]	Time to Δ PHi, max/2 (time to the half-maximum pHi change) [2] [s]
COCCOc1nc(-c2ccccc2)n(Cc2ccc(-c3ccccc3S(=O)(=O)NC#N)cc2S(C)(=O)=O)c1C=O [Compound 1, 4′-[5-formyl-4-(2-methoxyethoxy)-2-phenyl-1-imidazolylmethyl]-3′-methylsulfonylbiphenyl-2-sulfonylcyanamide]	157 ± 18	~50	
CC(C)c1ccc(C(=O)NC(=N)N)cc1S(C)(=O)=O [NHE, cariporide]			190 ± 2.9

Source: patent US20060025401A1, “Use of inhibitors of the sodium-dependent chloride/bicarbonate exchanger for the treatment of thrombotic and inflammatory disorders” (Sanofi-Aventis Deutschland GmbH, priority 2002, published 2006)
